Our source for the IC50, EC50 and AC50 values is ChEMBL document CHEMBL1201862, “PubChem BioAssay data set” (2004).

Activity calls are given as the source filed them.

In one experiment the target is Aspartyl aminopeptidase (Plasmodium falciparum 3D7, UniProt Q8I2J3).
A further experiment concerns the target Procathepsin L (Homo sapiens, UniProt P07711).
For experiment [1], the target named is T1, Rac GTPase-activating protein 1 (Homo sapiens, UniProt Q9H0H5).
T1 sequence (Q9H0H5 whole entry): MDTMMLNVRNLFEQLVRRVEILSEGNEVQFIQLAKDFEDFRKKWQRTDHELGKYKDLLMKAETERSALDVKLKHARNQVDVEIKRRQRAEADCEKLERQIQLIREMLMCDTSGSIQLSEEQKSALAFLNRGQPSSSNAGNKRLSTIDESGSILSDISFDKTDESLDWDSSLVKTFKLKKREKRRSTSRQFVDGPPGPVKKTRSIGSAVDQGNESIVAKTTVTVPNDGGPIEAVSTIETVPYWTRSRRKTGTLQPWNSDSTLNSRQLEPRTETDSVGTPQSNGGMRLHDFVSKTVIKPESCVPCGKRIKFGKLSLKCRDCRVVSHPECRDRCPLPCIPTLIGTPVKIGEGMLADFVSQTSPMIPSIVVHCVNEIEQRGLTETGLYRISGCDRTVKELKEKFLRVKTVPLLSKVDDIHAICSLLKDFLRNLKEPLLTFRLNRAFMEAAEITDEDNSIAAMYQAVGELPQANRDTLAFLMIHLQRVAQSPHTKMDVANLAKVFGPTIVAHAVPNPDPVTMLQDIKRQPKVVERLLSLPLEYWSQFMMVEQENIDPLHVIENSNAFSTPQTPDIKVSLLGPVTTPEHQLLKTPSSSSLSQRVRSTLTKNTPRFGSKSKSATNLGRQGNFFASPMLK
In words: MgcRacGAP GTPase-activating activity inhibitors, confirmation, biochemical, ADP Hunter fluorescence, primary and confirmatory (AID 624330). The experiment is classed as functional.

For experiment [2], the system named is HEK293. In words: NOD1 signaling inhibitors, primary screen, cell-based, luminescence, uHTS (AID 1578). It is filed as functional. As to conditions: Homo sapiens.
Experiment [3] has as its system HEK293. In words: cells. The experiment is classed as functional, cell-based. As to conditions: Homo sapiens.
The subject of experiment [4] is HEK293. Description: cells. The experiment is classed as functional, cell-based. As to conditions: Homo sapiens. This is another data set of the same source.
The target in experiment [5] is T2, Nucleotide-binding oligomerization domain-containing protein 2 (Homo sapiens, UniProt Q9HC29). In words: NOD2 signaling inhibitors, cell-based, luminescence, uHTS, HEK293 (AID 1566). The experiment is classed as functional.
T2 sequence (Q9HC29 whole entry, the tested form may be a part): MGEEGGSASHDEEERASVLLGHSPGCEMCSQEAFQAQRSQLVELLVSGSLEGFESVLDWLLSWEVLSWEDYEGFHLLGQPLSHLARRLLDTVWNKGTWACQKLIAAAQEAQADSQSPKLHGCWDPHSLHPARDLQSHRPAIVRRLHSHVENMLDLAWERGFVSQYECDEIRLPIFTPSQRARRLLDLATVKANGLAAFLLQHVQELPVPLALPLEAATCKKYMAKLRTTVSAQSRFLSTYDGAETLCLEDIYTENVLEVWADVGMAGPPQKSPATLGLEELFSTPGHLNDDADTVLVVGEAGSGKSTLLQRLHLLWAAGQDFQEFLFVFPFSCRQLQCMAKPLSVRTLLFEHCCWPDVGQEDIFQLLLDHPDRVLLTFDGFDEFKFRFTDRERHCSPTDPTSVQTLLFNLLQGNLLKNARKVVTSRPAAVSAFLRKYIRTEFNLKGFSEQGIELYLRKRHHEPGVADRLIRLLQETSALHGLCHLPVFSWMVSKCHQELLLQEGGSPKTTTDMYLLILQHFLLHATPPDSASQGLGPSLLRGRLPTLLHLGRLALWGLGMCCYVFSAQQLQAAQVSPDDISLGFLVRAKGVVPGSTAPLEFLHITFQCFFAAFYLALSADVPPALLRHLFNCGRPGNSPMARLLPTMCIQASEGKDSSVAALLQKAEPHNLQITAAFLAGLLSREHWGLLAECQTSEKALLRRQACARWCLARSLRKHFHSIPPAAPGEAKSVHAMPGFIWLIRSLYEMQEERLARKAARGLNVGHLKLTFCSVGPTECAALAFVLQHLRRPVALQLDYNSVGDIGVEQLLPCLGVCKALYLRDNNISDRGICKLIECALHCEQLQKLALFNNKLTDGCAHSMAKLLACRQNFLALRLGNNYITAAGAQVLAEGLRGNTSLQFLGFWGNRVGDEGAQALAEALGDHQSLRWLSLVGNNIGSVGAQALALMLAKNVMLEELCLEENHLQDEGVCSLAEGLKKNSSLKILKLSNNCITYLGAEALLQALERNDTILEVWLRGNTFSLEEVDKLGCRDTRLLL
Experiment [6] has as its system HEK293. Description: NOD2 signaling inhibitors in MDP-stimulated cells, cell-based, uHTS, luminescence (AID 2001). It is filed as functional. As to conditions: Homo sapiens.
The nature of experiment [7]: inhibitors of intracellular T. cruzi replication, confirmation, NIH3T3 host cells, beta-gal luminescence (AID 2044).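 Further: intracellular parasites grown in NIH/3T3 mouse fibroblasts as host cells; luminescent beta-galactosidase reporter signal from transgenic T. cruzi replicating inside host cells; inhibitors lower the luminescence signal.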 It is filed as functional, cell-based.
Experiment [8] deals with HEK293. In words: cells. It is filed as functional, cell-based. As to conditions: Homo sapiens. This is another data set of the same source.
The nature of experiment [9]: cytotoxicity toward NIH3T3 fibroblasts, dose response, counter-screen, cell-based, ATP luminescence, mouse fibroblasts (AID 2010).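 Further: cells exposed to compound for about 90 hours before reading.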 The experiment is classed as functional.
Experiment [10] has as its target T3, Interleukin-8 (Homo sapiens, UniProt P10145).
T3 sequence (P10145 whole entry): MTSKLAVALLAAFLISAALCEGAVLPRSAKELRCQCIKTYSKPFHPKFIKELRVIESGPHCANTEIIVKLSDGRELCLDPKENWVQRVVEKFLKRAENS
Description: SAR analysis of Tumor necrosis factor alpha (TNF-alpha) induced IL-8 secretion in MCF-7/NOD1 cells - Set 2. [Related pubchem assays (depositor defined):AID1575, AID2250, AID2260]. It is filed as functional, cell-based.

Experiment [11] concerns the target T3, Interleukin-8. Description: SAR analysis of GM-Tri-DAP induced IL-8 secretion in MCF-7/NOD1 cells - Set 2. [Related pubchem assays (depositor defined):AID1575, AID1578, AID2333]. The experiment is classed as functional, cell-based.
Experiment [12] addresses T2, Nucleotide-binding oligomerization domain-containing protein 2. Description: NOD2 inhibitors, SAR follow-up, set 2 (AID 2475). It is filed as functional.
Another experiment concerns the target Tumor necrosis factor (Homo sapiens, UniProt P01375). Description: TNFa-triggered NF-kB activation inhibitors, SAR follow-up, cell-based, revised (AID 2337). The experiment is classed as functional.
The subject of experiment [13] is HEK293. In words: SAR analysis of compounds that are cytotoxic to HEK293 - Set 2. [Related pubchem assays (depositor defined):AID1575, AID1578, AID1849, AID2001, AID2333, AID2334, AID2335, AID2337, AID2800]. As to conditions: Homo sapiens. The experiment is classed as functional, cell-based.
Experiment [14] addresses T4, Nucleotide-binding oligomerization domain-containing protein 1 (Homo sapiens, UniProt Q9Y239).
T4 sequence (Q9Y239 whole entry): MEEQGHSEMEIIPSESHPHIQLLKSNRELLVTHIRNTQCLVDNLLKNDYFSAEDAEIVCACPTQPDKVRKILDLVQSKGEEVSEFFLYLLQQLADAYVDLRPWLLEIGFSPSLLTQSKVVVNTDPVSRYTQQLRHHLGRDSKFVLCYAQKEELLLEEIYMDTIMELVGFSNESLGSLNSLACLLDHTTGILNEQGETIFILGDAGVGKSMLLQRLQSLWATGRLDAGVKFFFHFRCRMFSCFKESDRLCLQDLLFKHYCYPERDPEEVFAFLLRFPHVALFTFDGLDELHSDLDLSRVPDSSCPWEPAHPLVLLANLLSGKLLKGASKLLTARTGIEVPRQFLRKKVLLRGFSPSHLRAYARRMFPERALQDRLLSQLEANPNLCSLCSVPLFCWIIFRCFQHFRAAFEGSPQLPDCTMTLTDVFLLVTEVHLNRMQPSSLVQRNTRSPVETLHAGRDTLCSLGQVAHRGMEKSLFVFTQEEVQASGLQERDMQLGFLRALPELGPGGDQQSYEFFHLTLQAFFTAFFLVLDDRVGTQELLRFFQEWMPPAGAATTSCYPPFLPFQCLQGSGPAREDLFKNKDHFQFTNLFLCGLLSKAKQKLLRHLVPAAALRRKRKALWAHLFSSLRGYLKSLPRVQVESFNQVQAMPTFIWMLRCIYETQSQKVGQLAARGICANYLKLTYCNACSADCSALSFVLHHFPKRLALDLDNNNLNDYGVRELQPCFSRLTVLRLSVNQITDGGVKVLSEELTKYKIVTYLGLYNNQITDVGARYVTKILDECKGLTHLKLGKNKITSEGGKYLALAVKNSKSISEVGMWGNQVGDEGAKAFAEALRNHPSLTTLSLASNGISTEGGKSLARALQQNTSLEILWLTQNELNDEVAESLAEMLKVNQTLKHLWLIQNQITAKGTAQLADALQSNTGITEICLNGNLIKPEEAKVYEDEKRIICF
In words: NOD1 signaling inhibitors, SAR follow-up, revised (AID 2333). It is filed as functional.

The target of experiment [15] is T4, Nucleotide-binding oligomerization domain-containing protein 1. In words: SAR analysis of compounds that inhibit NOD1 - Set 2. [Related pubchem assays (depositor defined):AID1566, AID1575, AID1578, AID1849, AID1852, AID2333, AID2335, AID2798]. The experiment is classed as functional.
The target in experiment [16] is T2, Nucleotide-binding oligomerization domain-containing protein 2. In words: PubChem AID 2334. The experiment is classed as functional.
The test system of experiment [17] is HEK293. In words: cells. As to conditions: Homo sapiens.
Experiment [18] has as its target Eukaryotic translation initiation factor 4H (Homo sapiens, UniProt Q15056). In words: human eIF4H binding inhibitors, primary screen, translation initiation inhibitor project, biochemical, uHTS, fluorescence polarization (AID 2012). Background: In fluorescence polarisation assays a small probe gives low polarisation when free and higher when bound to something large.

In experiment [19] the target is Polyadenylate-binding protein 1 (Homo sapiens, UniProt P11940). In words: PABP poly(A) RNA binding inhibitors, primary screen, biochemical, fluorescence polarization, uHTS (AID 2014).
Polyadenylate-binding protein 1, sequence (P11940 whole entry): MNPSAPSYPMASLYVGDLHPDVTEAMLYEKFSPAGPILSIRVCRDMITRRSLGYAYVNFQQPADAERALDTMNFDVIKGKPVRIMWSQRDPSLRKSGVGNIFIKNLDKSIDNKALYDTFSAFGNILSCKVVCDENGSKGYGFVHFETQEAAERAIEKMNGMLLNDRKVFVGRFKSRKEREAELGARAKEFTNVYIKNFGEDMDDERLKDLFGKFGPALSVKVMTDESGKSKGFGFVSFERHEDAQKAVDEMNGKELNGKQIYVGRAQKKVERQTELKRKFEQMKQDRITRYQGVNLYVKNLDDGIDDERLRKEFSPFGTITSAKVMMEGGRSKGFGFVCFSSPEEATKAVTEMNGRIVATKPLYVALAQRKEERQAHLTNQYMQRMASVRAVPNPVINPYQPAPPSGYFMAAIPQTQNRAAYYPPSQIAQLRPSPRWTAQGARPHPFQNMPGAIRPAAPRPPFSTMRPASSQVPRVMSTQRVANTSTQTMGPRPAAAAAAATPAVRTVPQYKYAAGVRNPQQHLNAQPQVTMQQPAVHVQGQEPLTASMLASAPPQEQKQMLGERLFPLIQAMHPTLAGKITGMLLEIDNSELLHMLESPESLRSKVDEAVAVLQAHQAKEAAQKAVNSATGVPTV
The target of experiment [20] is Acyl-homoserine lactone acylase PvdQ (Pseudomonas aeruginosa (strain LESB58), UniProt Q9I194). Description: P. aeruginosa PvdQ acylase inhibitors, dose response, biochemical, fluorescence, plate reader and imaging, cherry-picks (AID 493231).
Acyl-homoserine lactone acylase PvdQ, sequence (Q9I194 24-193 limits assumed): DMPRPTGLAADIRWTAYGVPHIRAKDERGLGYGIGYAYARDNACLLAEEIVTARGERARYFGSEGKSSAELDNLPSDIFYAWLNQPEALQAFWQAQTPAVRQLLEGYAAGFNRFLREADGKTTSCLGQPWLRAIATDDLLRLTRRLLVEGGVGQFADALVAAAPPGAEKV
Acyl-homoserine lactone acylase PvdQ, sequence (Q9I194 217-762 limits assumed): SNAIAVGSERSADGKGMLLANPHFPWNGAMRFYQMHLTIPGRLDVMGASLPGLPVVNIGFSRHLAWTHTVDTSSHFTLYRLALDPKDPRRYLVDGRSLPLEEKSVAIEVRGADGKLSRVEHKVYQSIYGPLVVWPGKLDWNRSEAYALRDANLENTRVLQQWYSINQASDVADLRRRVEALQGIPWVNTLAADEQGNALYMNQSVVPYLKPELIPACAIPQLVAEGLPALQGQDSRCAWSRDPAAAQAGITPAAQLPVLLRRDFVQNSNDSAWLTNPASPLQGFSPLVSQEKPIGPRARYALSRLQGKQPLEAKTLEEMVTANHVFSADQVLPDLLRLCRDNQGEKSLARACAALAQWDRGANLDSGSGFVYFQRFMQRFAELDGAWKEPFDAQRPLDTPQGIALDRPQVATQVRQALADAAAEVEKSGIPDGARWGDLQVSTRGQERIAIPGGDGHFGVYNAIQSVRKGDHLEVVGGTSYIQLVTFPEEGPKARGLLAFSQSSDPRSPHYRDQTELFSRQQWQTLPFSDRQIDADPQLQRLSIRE
Experiment [21] deals with T5, Protein phosphatase methylesterase 1 (Homo sapiens, UniProt Q9Y570). In words: Late stage results from the probe development effort to identify inhibitors of the protein methylesterase PME-1: Gel-based Activity-Based Protein Profiling (ABPP) IC50: Purified enzyme. It is filed as functional.
T5 sequence (Q9Y570 whole entry): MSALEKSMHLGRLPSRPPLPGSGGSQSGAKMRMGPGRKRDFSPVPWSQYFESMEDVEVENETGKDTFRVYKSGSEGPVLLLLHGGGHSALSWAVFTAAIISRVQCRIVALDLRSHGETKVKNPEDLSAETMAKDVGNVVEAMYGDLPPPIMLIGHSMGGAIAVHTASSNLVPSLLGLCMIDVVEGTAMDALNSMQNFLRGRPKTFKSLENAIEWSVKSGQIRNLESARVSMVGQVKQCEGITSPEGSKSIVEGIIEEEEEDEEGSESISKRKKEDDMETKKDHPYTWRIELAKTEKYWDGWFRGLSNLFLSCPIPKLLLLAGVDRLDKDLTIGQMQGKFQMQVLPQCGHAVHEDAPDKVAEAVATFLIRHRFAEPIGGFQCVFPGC
Experiment [22] deals with T5, Protein phosphatase methylesterase 1. Description: PME-1 inhibitor potency by in-gel ABPP, dose response, selectivity assay for PME-1 inhibitor project, cell lysate, mouse brain cytosol, FP-rhodamine, panel member PME-1 Assay Panel member description: Inhibition of endogenously expressed PME-1 (AID 2366).

Tumor necrosis factor, sequence (P01375 whole entry): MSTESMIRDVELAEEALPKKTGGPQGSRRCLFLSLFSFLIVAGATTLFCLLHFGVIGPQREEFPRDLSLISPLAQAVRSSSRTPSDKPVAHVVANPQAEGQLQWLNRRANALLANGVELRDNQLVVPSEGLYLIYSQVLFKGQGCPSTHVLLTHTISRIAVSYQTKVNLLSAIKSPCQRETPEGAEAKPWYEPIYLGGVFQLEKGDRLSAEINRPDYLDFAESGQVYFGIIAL
Aspartyl aminopeptidase, sequence (Q8I2J3 whole entry): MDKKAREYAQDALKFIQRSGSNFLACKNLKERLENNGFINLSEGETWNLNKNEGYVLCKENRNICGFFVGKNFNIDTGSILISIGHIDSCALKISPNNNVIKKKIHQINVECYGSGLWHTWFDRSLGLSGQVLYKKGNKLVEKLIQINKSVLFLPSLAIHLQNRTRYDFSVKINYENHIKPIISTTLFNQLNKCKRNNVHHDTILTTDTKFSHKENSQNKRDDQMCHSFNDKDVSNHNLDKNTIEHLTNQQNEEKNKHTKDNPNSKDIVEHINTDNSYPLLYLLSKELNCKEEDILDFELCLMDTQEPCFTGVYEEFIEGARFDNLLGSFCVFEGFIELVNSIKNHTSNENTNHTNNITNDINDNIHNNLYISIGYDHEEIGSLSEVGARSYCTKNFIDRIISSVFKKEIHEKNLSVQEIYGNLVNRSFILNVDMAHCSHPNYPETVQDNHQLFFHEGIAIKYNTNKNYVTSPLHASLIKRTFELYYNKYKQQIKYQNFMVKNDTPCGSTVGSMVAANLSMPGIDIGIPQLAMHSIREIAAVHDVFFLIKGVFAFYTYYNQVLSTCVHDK
Procathepsin L, sequence (P07711 whole entry): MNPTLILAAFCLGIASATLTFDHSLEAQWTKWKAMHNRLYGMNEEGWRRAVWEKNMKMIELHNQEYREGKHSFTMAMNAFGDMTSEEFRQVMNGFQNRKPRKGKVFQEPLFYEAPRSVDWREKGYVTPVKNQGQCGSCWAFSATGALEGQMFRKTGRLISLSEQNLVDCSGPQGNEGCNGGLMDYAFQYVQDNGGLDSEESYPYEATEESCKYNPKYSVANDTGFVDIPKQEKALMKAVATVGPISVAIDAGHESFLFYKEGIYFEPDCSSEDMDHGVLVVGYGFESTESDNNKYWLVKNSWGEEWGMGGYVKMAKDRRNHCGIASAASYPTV

As usually defined, the IC50 is the concentration that gives 50% inhibition. `Cc1cc(O)nc2c(N=Nc3ccc(O)cc3)c(N)nn12`: the IC50 at Aspartyl aminopeptidase is 1.51 µM (active); on Procathepsin L, > 59.6 µM (not active); in experiment [1], 12.1 µM (active).
As usually defined, the EC50 is the concentration that produces a half-maximal response. Take `O=C(Nc1nc2ccccc2n1Cc1ccc(Cl)cc1)c1ccco1`: the EC50 was > 20 µM (inactive) in the experiment with HEK293 [2], > 20 µM (inactive) in [5], 1.72 µM (active) in experiment [7] and > 60 µM (not active) in experiment [9]. The IC50 in the experiment with HEK293 [3] was > 20 µM (inactive); with HEK293 [4] it was > 20 µM (inactive); with HEK293 [6], 1.96 µM (active); in the experiment on HEK293 [8] it was > 20 µM (inactive); on Interleukin-8 [10], > 25 µM (inactive); at Interleukin-8 [11], > 25 µM (inactive). The IC50 was 3.63 µM (active) in experiment [12]; > 20 µM (inactive) on Tumor necrosis factor; > 20 µM (inactive) in the experiment with HEK293 [13]; > 20 µM (inactive) in experiment [14]; 3.47 µM (active) in [15]; > 20 µM (inactive) in [16]. In the experiment on HEK293 [17], the IC50 is > 20 µM (inactive).
`Cc1ccccc1/C=C/c1cccc[n+]1C`: the figures for the IC50 in [18] and in [19] were > 100 µM (inactive) and 7.43 µM (active), respectively.
Usually AC50 stands for the concentration giving half of the maximal activity seen. In the case of `N#Cc1cc([N+](=O)[O-])ccc1N1CCCC1`, the AC50 in experiment [20] was 3.79 µM (active).
As to `CS(=O)(=O)C(=Cc1cccn1S(=O)(=O)c1ccccc1)S(C)(=O)=O`, the IC50 in [21] was > 20 µM (not active); in [22] it was > 20 µM (inactive).
